Data reported in patent publication US12012387B2, “Triazine compound and use thereof” (priority 2018, dated 2024).

Experiments:
[1] = tested on: Gram-negative bacteria and Gram-positive bacteria; test: Antibacterial activity, MIC over the four strains (GM); format: cell-based; conditions: mean of the MIC values of the four strains
Procedure: To confirm the antibacterial activity, a minimal inhibitory concentration (MIC) value, which is a minimum concentration at which fungus bodies are not divided, was measured. Specifically, the strains disclosed in the following table 1 were purchased, incubated in each medium up to a mid-log phase, diluted to a fungus body concentration of 2×10^5 cells/100 μl, and inoculated into a micro titrate plate (Nunc, USA). […] A control group was treated with melittine by the same method as above, so as to determine an MIC value for each strain.

[2] = tested on: trypsin; test: Stability against protease (radial diffusion assay after trypsin treatment); format: in vitro ADME; conditions: 24 hours after trypsin culture; FIG. 2
Procedure: To confirm the stability against the protease, trypsin degradation was identified by using a radial diffusion assay method after treatment with each of the triazine compounds of the following example. Specifically, the cultured strains (Escherichia coli) were incubated in 10 mL of LB medium at 37° C. for 18 hours, after which 10 μl of the culture fluid was inoculated into 10 mL of fresh BL medium and then further incubated for three hours, so as to obtain bacteria in a mid-logarithmic phase. For the radial diffusion assay method, a bacterial suspension (2×10^6 CFU/mL in LB) was mixed with 0.7% agarose and rapidly dispersed, after which the resulting mixed solution was poured into a 10 cm-long Petri dish. Each 5 μl of the triazine compound solution (10 mg/mL) of the following example was added to 25 μl of trypsin solution (0.2 μg/mL in PBS), and incubated at 37° C. for six hours. A reaction was terminated by freezing with liquid nitrogen, after which each 10 μl was taken, seeded on circular paper having a diameter of 6 mm placed on the Petri dish containing the agarose, and incubated overnight at 37° C. To quantify the inhibitory activity, the clearance zones of bacteria around the circular paper were measured to confirm the antibacterial activity. As a control group, melittine was used.

CC[C@H](C)[C@H](NC(=O)CN)C(=O)NCC(=O)N[C@@H](C)C(=O)N[C@H](C(=O)N[C@@H](CC(C)C)C(=O)N[C@@H](CCCCN)C(=O)N[C@H](C(=O)N[C@@H](CC(C)C)C(=O)N[C@H](C(=O)N[C@H](C(=O)NCC(=O)N[C@@H](CC(C)C)C(=O)N1CCC[C@H]1C(=O)N[C@@H](C)C(=O)N[C@@H](CC(C)C)C(=O)N[C@H](C(=O)N[C@@H](CO)C(=O)N[C@@H](Cc1c[nH]c2ccccc12)C(=O)N[C@H](C(=O)N[C@@H](CCCCN)C(=O)N[C@@H](CCCNC(=N)N)C(=O)N[C@@H](CCCCN)C(=O)N[C@@H](CCCNC(=N)N)C(=O)N[C@@H](CCC(N)=O)C(=O)N[C@@H](CCC(N)=O)C(N)=O)[C@@H](C)CC)[C@@H](C)CC)[C@@H](C)O)[C@@H](C)O)C(C)C)C(C)C [Melittin]
GM [1]: 3.8 µM
antibacterial activity against E. coli after trypsin culture [2]: remarkable decrease in the antibacterial activity
